US12559529B2, “NPY2 receptor agonists” (Boehringer Ingelheim International GmbH, priority 2019, dated 2026)
*1 amine or outer side, *2 acyl side, *3 side chain or, on linkers, in order; H or OH if unused. Where a SMILES comes first, the peptide text is derived from it. Side-chain parts run from the residue outwards. The star is where a group is joined. C18 diacid = O=C(O)CCCCCCCCCCCCCCCCC(=O)*; γGlu = O=C(O)[C@H](CCC(=O)[*:2])N[*:1]; Isovaleryl = CC(C)CC(=O)*; AEEA = NCCOCCOCC(=O)O

These compounds were tested against T1, Human Neuropeptide Y2 Receptor (Homo sapiens, UniProt P49146) (assay: Radioligand binding competition assay (RLB)). Conditions: Table 3; human 125I-PYY (1-36) 0.02 nM, Y2 receptor membranes; read-out: Ki.
T1 construct: purchased CHEMICON HTS066M
T1 sequence (P49146 1-381): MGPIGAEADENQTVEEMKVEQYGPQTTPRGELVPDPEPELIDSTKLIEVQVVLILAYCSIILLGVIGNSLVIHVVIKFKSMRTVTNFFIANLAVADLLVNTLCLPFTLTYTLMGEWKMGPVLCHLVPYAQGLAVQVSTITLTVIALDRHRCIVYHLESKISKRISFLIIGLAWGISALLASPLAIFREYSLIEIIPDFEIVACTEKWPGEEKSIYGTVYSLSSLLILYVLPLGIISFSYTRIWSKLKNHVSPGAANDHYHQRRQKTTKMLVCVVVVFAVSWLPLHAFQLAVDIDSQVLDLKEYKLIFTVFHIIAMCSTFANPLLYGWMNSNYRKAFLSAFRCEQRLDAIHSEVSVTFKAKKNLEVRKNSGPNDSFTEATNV
Experimental: The filtration RLB assay was carried out in 96-well plates in a final volume of 100 μl per well. Freeze-dried test peptides were dissolved in 100% dimethyl sulfoxide (DMSO) to stock solutions of 1 mM and serial dilutions were performed in assay buffer (50 mM HEPES, 5 mM MgCl2, 1 mM CaCl2), pH 7.4) containing 0.2% ovalbumin. […] Next, 80 μL membranes (HTS066M, ChemiSCREEN™ Human Neuropeptide Y2 Receptor Membrane Preparation, CHEMICON) were added to each well to give a final protein concentration of 0.5 μg/well. The plates were sealed and incubated at room temperature for 2 hours in a plate shaker set at 400 rpm. The incubation was stopped by vacuum filtration onto 0.5% poly-ethylene amine (PEI) presoaked GF/C filters using a 96-well FilterMate™ harvester (Perkin Elmer) followed by four washes with 300 μl/well ice-cold wash buffer (50 mM HEPES, 500 mM NaCl, pH7.4). Filter plates were then dried for 60 min at room temperature and the bottom of the plates was sealed with backing tape UniFilter-96. Finally, 50 μl/well scintillation counter cocktail (Microscint20, Packard) was added and the radioactivity was counted in the Packard TopCount NXT scintillation counter. IC50 values (the half maximal inhibitory concentration of the agonist) were calculated by nonlinear regression analysis of sigmoidal dose-response curves.

| SMILES | Ki |
| --- | --- |
| CC(C)CC(=O)N[C@@H](C)C(=O)N1CCC[C@H]1C(=O)N[C@@H](CCC(=O)O)C(=O)N[C@@H](CCCCNC(=O)COCCOCCNC(=O)COCCOCCNC(=O)CC[C@H](NC(=O)CCCCCCCCCCCCCCCCC(=O)O)C(=O)O)C(=O)N1CCC[C@H]1C(=O)N[C@@H](CCC(=O)O)C(=O)N[C@@H](CCC(=O)O)C(=O)N[C@@H](CC(=O)O)C(=O)N[C@@H](C)C(=O)N[C@@H](CCC(N)=O)C(=O)N1CCC[C@H]1C(=O)N[C@@H](CCC(=O)O)C(=O)N[C@@H](CCC(=O)O)C(=O)N[C@@H](CC(C)C)C(=O)N[C@@H](CCC(N)=O)C(=O)N[C@@H](CCC(=O)O)C(=O)N[C@@H](Cc1ccc(O)cc1)C(=O)N[C@@H](Cc1ccc(O)cc1)C(=O)N[C@H](C(=O)N[C@@H](CO)C(=O)N[C@@H](CC(C)C)C(=O)N[C@@H](CCCNC(=N)N)C(=O)N[C@@H](Cc1c[nH]cn1)C(=O)N[C@@H](Cc1ccc(O)cc1)C(=O)N[C@@H](Cc1ccc(O)cc1)C(=O)N[C@@H](CC(N)=O)C(=O)N[C@@H](Cc1c[nH]c2ccccc12)C(=O)N[C@@H](CC(C)C)C(=O)N[C@H](C(=O)N[C@@H](CCCNC(=N)N)C(=O)N[C@@H](CCC(N)=O)C(=O)N[C@@H](CCCNC(=N)N)C(=O)N[C@@H](Cc1ccc(O)cc1)C(N)=O)[C@@H](C)O)C(C)C [Compound 1, N{alpha-4}-(3-methylbutanoyl)-N{epsilon-7}-[2-(2-{2-[2-(2-{2-[(4S)-4-carboxy-4-(17-carboxyheptadecanamido)butanamido]ethoxy}ethoxy)acetamido]ethoxy}ethoxy)acetamido]-[4A,7K,9E,13Q,18Q,19E,22V,28Y,30W,31L]hPYY (4-36)] (Isovaleryl-APEK([AEEA-AEEA-γGlu-C18 diacid])PEEDAQPEELQEYYVSLRHYYNWLTRQRY-NH2) | 2.5 nM |
| CC(C)CC(=O)N[C@@H](C)C(=O)N1CCC[C@H]1C(=O)N[C@@H](CCC(=O)O)C(=O)N[C@@H](CCCCNC(=O)COCCOCCNC(=O)COCCOCCNC(=O)CC[C@H](NC(=O)CCCCCCCCCCCCCCCCC(=O)O)C(=O)O)C(=O)N1CCC[C@H]1C(=O)N[C@@H](CCC(=O)O)C(=O)N[C@@H](CCC(=O)O)C(=O)N[C@@H](CC(=O)O)C(=O)N[C@@H](C)C(=O)N[C@@H](CO)C(=O)N1CCC[C@H]1C(=O)N[C@@H](CCC(=O)O)C(=O)N[C@@H](CCC(=O)O)C(=O)N[C@@H](CC(C)C)C(=O)N[C@@H](CCC(N)=O)C(=O)N[C@@H](CCCNC(=N)N)C(=O)N[C@@H](Cc1ccc(O)cc1)C(=O)N[C@@H](Cc1ccc(O)cc1)C(=O)N[C@H](C(=O)N[C@@H](CO)C(=O)N[C@@H](CC(C)C)C(=O)N[C@@H](CCCNC(=N)N)C(=O)N[C@@H](Cc1c[nH]cn1)C(=O)N[C@@H](Cc1ccc(O)cc1)C(=O)N[C@@H](Cc1ccc(O)cc1)C(=O)N[C@@H](CC(N)=O)C(=O)N[C@@H](Cc1c[nH]c2ccccc12)C(=O)N[C@@H](CC(C)C)C(=O)N[C@@H](CCC(N)=O)C(=O)N[C@@H](CCCNC(=N)N)C(=O)N[C@@H](CCC(N)=O)C(=O)N[C@@H](CCCNC(=N)N)C(=O)N[C@@H](Cc1ccc(O)cc1)C(N)=O)C(C)C [Compound 4, N{alpha-4}-(3-methylbutanoyl)-N{epsilon-7}-[2-(2-{2-[2-(2-{2-[(4S)-4-carboxy-4-(17-carboxyheptadecanamido)butanamido]ethoxy}ethoxy)acetamido]ethoxy}ethoxy)acetamido]-[4A,7K,9E,18Q,22V,28Y,30W,31L,32Q]hPYY (4-36)] | 1.43 nM |
| CC(C)CC(=O)N[C@@H](C)C(=O)N1CCC[C@H]1C(=O)N[C@@H](CCC(=O)O)C(=O)N[C@@H](CCCCNC(=O)COCCOCCNC(=O)COCCOCCNC(=O)CC[C@H](NC(=O)CCCCCCCCCCCCCCCCC(=O)O)C(=O)O)C(=O)N1CCC[C@H]1C(=O)N[C@@H](CCC(=O)O)C(=O)N[C@@H](CCC(=O)O)C(=O)N[C@@H](CCC(=O)O)C(=O)N[C@H](C(=O)N[C@@H](CO)C(=O)N1CCC[C@H]1C(=O)N[C@@H](CCC(=O)O)C(=O)N[C@@H](CCC(=O)O)C(=O)N[C@@H](CC(C)C)C(=O)N[C@@H](CCC(N)=O)C(=O)N[C@@H](CCCNC(=N)N)C(=O)N[C@@H](Cc1ccc(O)cc1)C(=O)N[C@@H](Cc1ccc(O)cc1)C(=O)N[C@H](C(=O)N[C@@H](CO)C(=O)N[C@@H](CC(C)C)C(=O)N[C@@H](CCCNC(=N)N)C(=O)N[C@@H](Cc1c[nH]cn1)C(=O)N[C@@H](Cc1ccc(O)cc1)C(=O)N[C@@H](Cc1ccc(O)cc1)C(=O)N[C@@H](CC(N)=O)C(=O)N[C@@H](Cc1c[nH]c2ccccc12)C(=O)N[C@@H](CC(C)C)C(=O)N[C@H](C(=O)N[C@@H](CCCNC(=N)N)C(=O)N[C@@H](CCC(N)=O)C(=O)N[C@@H](CCCNC(=N)N)C(=O)N[C@@H](Cc1ccc(O)cc1)C(N)=O)[C@@H](C)O)C(C)C)C(C)C [Compound 5, N{alpha-4}-(3-methylbutanoyl)-N{epsilon-7}-[2-(2-{2-[2-(2-{2-[(4S)-4-carboxy-4-(17-carboxyheptadecanamido)butanamido]ethoxy}ethoxy)acetamido]ethoxy}ethoxy)acetamido]-[4A,7K,9E,11E,12V,18Q,22V,28Y,30W,31L]hPYY (4-36)] (Isovaleryl-APEK([AEEA-AEEA-γGlu-C18 diacid])PEEEVSPEELQRYYVSLRHYYNWLTRQRY-NH2) | 14.8 nM |
| CC(C)CC(=O)N[C@@H](C)C(=O)N1CCC[C@H]1C(=O)N[C@@H](CCC(=O)O)C(=O)N[C@@H](CCCCNC(=O)COCCOCCNC(=O)COCCOCCNC(=O)CC[C@H](NC(=O)CCCCCCCCCCCCCCCCC(=O)O)C(=O)O)C(=O)N1CCC[C@H]1C(=O)N[C@@H](CCC(=O)O)C(=O)N[C@@H](CCC(=O)O)C(=O)N[C@@H](CCC(=O)O)C(=O)N[C@@H](C)C(=O)N[C@@H](CO)C(=O)N1CCC[C@H]1C(=O)N[C@@H](CCC(=O)O)C(=O)N[C@@H](CCC(=O)O)C(=O)N[C@@H](CC(C)C)C(=O)N[C@@H](CCC(N)=O)C(=O)N[C@@H](CCCNC(=N)N)C(=O)N[C@@H](Cc1ccc(O)cc1)C(=O)N[C@@H](Cc1ccc(O)cc1)C(=O)N[C@H](C(=O)N[C@@H](CO)C(=O)N[C@@H](C)C(=O)N[C@@H](CCCNC(=N)N)C(=O)N[C@@H](Cc1c[nH]cn1)C(=O)N[C@@H](Cc1ccc(O)cc1)C(=O)N[C@@H](Cc1ccc(O)cc1)C(=O)N[C@@H](CC(N)=O)C(=O)N[C@@H](Cc1c[nH]c2ccccc12)C(=O)N[C@@H](CC(C)C)C(=O)N[C@H](C(=O)N[C@@H](CCCNC(=N)N)C(=O)N[C@@H](CCC(N)=O)C(=O)N[C@@H](CCCNC(=N)N)C(=O)N[C@@H](Cc1ccc(O)cc1)C(N)=O)[C@@H](C)O)C(C)C [Compound 6, N{alpha-4}-(3-methylbutanoyl)-N{epsilon-7}-[2-(2-{2-[2-(2-{2-[(4S)-4-carboxy-4-(17-carboxyheptadecanamido)butanamido]ethoxy}ethoxy)acetamido]ethoxy}ethoxy)acetamido]-[4A,7K,9E,11E,18Q,22V,24A,28Y,30W,31L]hPYY (4-36)] (Isovaleryl-APEK([AEEA-AEEA-γGlu-C18 diacid])PEEEASPEELQRYYVSARHYYNWLTRQRY-NH2) | 6.52 nM |
| CC(C)CC(=O)N[C@@H](C)C(=O)N1CCC[C@H]1C(=O)N[C@@H](CCC(=O)O)C(=O)N[C@@H](CCCCNC(=O)COCCOCCNC(=O)COCCOCCNC(=O)CC[C@H](NC(=O)CCCCCCCCCCCCCCCCC(=O)O)C(=O)O)C(=O)N1CCC[C@H]1C(=O)N[C@@H](CCC(=O)O)C(=O)N[C@@H](C)C(=O)N[C@@H](CC(=O)O)C(=O)N[C@@H](C)C(=O)N[C@@H](CO)C(=O)N1CCC[C@H]1C(=O)N[C@@H](CCC(=O)O)C(=O)N[C@@H](CCC(=O)O)C(=O)N[C@H](C(=O)N[C@@H](CCC(N)=O)C(=O)N[C@@H](CCCNC(=N)N)C(=O)N[C@@H](Cc1ccc(O)cc1)C(=O)N[C@@H](Cc1ccc(O)cc1)C(=O)N[C@H](C(=O)N[C@@H](CO)C(=O)N[C@@H](CC(C)C)C(=O)N[C@@H](CCCNC(=N)N)C(=O)N[C@@H](Cc1c[nH]cn1)C(=O)N[C@@H](Cc1ccc(O)cc1)C(=O)N[C@@H](Cc1ccc(O)cc1)C(=O)N[C@@H](CC(N)=O)C(=O)N[C@@H](Cc1c[nH]c2ccccc12)C(=O)N[C@@H](CC(C)C)C(=O)N[C@H](C(=O)N[C@@H](CCCNC(=N)N)C(=O)N[C@@H](CCC(N)=O)C(=O)N[C@@H](CCCNC(=N)N)C(=O)N[C@@H](Cc1ccc(O)cc1)C(N)=O)[C@@H](C)O)C(C)C)[C@@H](C)O [Compound 10, N{alpha-4}-(3-methylbutanoyl)-N{epsilon-7}-[2-(2-{2-[2-(2-{2-[(4S)-4-carboxy-4-(17-carboxyheptadecanamido)butanamido]ethoxy}ethoxy)acetamido]ethoxy}ethoxy)acetamido]-[4A,7K,9E,10A,17T,18Q,22V,28Y,30W,31L]hPYY (4-36)] | 1.28 nM |
